Where two headings read alike, the source gives them in different places.
Key:
Drosophila TRPL channel [1] = target: T1, Drosophila TRPL channel (Drosophila melanogaster, UniProt P48994); assay: Whole cell patch clamp of TRPL channels expressed in S2 cells; format: cell-based; conditions: for TRPL Activation/Inhibition: Table 1, TRPL expressed in S2 cells; for Reversibility of effect on TRPL channel: washout, S2 cells
T1 sequence (P48994 1-1124): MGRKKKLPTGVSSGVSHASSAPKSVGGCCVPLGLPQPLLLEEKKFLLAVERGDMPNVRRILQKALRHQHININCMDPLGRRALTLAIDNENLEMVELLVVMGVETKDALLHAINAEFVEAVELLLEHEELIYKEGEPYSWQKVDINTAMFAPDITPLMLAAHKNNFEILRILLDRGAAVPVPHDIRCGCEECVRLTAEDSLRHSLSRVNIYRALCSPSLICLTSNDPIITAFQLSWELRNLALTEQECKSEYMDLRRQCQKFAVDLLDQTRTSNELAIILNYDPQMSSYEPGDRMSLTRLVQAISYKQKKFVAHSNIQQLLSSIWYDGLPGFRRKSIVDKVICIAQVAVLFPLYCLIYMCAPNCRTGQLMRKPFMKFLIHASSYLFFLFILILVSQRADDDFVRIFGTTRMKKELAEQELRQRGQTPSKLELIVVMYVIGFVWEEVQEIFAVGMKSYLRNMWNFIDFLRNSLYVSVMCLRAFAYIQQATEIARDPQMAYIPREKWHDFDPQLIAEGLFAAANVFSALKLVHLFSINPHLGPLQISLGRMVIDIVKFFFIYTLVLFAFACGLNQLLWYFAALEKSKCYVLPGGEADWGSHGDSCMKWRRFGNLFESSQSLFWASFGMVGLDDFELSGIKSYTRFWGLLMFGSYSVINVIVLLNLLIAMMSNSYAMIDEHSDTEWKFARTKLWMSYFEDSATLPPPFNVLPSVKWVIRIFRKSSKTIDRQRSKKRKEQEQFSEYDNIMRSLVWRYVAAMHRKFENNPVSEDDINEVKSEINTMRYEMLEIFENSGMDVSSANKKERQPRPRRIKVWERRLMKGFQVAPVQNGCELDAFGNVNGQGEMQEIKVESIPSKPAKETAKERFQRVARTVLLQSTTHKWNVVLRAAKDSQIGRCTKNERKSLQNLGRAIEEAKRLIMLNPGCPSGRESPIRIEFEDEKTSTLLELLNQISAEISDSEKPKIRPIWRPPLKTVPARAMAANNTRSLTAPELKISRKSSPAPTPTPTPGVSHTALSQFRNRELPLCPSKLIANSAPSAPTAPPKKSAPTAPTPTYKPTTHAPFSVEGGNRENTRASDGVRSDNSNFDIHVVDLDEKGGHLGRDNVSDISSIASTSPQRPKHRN

Drosophila TRPL channel [2] = target: T1, Drosophila TRPL channel; conditions: Table 1; no own experiment shown; cited from earlier work
[3] = system: S2 cells (TRPL not expressed); format: cell-based, Drosophila; conditions: control S2 cells
TRPM8 = conditions: cited from earlier work
[4] = system: control hippocampal neurons; assay: Synaptic vesicle release; format: cell-based; conditions: 500μM
[5] = system: mock transfected HEK293 cells; assay: Control: mock transfected HEK293 cells, whole cell patch clamp; format: cell-based, Human; conditions: TRPM7 not expressed
[6] = target: TRPM7-GFP expressed in hippocampal neurons (Mus musculus, UniProt Q923J1); assay: Synaptic vesicle release; format: cell-based; conditions: 500μM
Sequence of TRPM7-GFP expressed in hippocampal neurons (Q923J1 whole entry): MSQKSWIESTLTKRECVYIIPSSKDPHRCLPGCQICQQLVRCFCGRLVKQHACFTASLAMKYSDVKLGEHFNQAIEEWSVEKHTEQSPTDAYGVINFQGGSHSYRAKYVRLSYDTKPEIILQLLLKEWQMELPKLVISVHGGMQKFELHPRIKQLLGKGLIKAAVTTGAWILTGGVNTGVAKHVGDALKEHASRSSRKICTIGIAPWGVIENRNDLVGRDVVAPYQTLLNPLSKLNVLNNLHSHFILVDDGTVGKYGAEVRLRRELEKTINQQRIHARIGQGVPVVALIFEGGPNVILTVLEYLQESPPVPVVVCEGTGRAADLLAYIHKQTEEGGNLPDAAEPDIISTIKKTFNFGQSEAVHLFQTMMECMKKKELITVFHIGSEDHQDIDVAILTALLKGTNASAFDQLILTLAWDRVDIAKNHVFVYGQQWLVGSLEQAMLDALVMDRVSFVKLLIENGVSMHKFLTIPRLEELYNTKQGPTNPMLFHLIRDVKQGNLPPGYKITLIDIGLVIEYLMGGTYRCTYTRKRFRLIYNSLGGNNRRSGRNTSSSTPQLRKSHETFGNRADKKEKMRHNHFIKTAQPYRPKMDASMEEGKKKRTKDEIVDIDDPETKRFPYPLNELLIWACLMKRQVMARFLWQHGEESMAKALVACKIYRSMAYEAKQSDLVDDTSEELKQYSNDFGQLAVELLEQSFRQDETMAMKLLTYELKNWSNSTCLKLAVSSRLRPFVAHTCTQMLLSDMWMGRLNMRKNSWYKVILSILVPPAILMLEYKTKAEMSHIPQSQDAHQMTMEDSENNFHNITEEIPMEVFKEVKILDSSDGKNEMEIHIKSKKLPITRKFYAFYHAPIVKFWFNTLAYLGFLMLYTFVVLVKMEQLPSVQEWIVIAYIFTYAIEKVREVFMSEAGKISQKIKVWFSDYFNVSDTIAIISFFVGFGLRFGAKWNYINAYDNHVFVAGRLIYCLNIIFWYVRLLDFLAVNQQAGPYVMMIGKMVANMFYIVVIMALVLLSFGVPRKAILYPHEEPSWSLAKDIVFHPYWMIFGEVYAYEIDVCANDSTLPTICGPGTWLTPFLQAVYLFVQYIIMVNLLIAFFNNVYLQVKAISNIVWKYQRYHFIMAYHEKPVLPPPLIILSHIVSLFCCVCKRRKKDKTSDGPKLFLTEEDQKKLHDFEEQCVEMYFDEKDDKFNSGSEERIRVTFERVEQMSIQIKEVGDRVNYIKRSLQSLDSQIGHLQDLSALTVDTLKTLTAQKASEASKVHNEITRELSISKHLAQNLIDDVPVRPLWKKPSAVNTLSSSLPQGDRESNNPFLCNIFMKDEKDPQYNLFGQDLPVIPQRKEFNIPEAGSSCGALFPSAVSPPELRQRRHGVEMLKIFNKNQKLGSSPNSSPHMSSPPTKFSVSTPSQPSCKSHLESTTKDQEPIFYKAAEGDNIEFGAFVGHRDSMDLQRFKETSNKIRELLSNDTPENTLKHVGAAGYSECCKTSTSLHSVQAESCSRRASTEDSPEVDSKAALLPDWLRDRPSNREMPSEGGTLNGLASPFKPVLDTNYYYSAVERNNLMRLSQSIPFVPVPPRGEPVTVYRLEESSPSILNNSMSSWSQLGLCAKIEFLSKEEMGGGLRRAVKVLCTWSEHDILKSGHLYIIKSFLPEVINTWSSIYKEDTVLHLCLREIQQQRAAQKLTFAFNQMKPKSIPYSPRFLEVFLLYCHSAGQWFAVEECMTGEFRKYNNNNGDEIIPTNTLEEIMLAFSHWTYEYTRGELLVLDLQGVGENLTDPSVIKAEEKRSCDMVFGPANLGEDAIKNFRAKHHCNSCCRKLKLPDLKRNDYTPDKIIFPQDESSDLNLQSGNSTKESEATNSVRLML

native TRPL channel = target: T2, native TRPL channel (Drosophila melanogaster, UniProt P48994); assay: Light induced current
T2 sequence (P48994 1-1124): T1 sequence (P48994 1-1124)

mammalian TRPM7 = mammalian TRPM7 (Mus musculus, UniProt Q923J1); assay: Whole cell patch clamp of TRPM7 expressed in HEK293 cells; format: cell-based
Sequence of mammalian TRPM7 (Q923J1 whole entry): as above

native TRP channel = target: T3, native TRP channel (Drosophila melanogaster, UniProt P19334); assay: Light induced current; conditions: WT photoreceptors, 6 min in the dark after application
T3 sequence (P19334 1-1275): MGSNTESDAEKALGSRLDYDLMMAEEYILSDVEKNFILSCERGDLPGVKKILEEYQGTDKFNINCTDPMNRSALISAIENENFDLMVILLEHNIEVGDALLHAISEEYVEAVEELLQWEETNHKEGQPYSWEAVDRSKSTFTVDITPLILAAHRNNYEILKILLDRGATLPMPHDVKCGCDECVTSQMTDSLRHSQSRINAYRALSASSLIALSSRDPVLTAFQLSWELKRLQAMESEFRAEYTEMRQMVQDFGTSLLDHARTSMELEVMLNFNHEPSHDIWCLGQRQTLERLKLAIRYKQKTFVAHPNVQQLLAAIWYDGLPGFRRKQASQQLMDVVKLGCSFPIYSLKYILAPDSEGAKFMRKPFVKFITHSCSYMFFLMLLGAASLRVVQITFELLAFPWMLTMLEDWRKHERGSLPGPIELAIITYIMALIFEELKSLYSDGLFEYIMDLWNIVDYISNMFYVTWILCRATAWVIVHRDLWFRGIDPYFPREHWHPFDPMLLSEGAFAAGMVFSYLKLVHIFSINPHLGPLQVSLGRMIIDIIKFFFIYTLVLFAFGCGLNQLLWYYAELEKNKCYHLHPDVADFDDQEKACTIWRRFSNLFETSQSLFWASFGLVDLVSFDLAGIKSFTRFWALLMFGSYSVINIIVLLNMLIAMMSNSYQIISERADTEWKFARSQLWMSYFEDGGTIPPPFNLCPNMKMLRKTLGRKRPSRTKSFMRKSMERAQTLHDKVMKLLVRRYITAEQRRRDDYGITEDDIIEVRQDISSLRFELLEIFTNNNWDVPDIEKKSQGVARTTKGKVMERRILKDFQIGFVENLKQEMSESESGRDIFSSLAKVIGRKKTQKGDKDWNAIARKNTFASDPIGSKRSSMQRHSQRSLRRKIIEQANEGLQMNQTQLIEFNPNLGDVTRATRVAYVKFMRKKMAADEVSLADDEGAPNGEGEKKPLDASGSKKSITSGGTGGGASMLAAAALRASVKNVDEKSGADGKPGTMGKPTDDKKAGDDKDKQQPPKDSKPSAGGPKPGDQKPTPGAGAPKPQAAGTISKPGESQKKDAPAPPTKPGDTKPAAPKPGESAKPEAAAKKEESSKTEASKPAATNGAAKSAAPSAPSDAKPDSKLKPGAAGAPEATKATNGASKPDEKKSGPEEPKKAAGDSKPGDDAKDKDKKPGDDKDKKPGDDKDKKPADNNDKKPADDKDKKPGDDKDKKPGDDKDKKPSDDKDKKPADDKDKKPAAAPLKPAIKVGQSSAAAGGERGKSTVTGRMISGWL

C=C(C)C1CC=C(C)C(O)C1 (mixture of isomers) [Carveol]
IC50 (Drosophila TRPL channel [1]): 4.22 ± 0.4 mM | Effect on TRPL-mediated current (Drosophila TRPL channel [1]; 5mM (caffeic acid: up to 5mM)): large decrease in the TRPL-dependent current | TRPL Activation/Inhibition (Drosophila TRPL channel [1]): Inhibition

NCCOB(c1ccccc1)c1ccccc1 [2-APB, 2-Aminoethoxydiphenyl borate]
TRPL Activation/Inhibition (Drosophila TRPL channel [2]): Inhibition

CC1(C)C2CCC1(C)C(O)C2 (centres unmarked) [Borneol]
Effect on TRPL-mediated current (Drosophila TRPL channel [1]; 5mM (caffeic acid: up to 5mM)): activated | TRPL Activation/Inhibition (Drosophila TRPL channel [1]): Activation | Reversibility of effect on TRPL channel (Drosophila TRPL channel [1]): completely reversible | Effect on current when TRPL was not expressed [3]: no effect

O=C(O)/C=C/c1ccc(O)c(O)c1 [Caffeic acid]
Effect on TRPL-mediated current (Drosophila TRPL channel [1]; 5mM (caffeic acid: up to 5mM)): did not block | TRPL Activation/Inhibition (Drosophila TRPL channel [1]): No effect

CC12CCC(CC1=O)C2(C)C (centres unmarked) [Camphor]
Effect on TRPL-mediated current (Drosophila TRPL channel [1]; 10mM): activated | TRPL Activation/Inhibition (Drosophila TRPL channel [1]): Activation

Cc1ccc(C(C)C)cc1O [Carvacrol]
Effect on TRPM8 (TRPM8): only a minimal effect | Effect on presynaptic activity in control neurons [4]: did not affect | ΔF median of boutons after application ([4]; before application 88): 87 arbitrary units | Number of FM detectable boutons after application ([4]; before application 764): 845 | Effect on current in mock transfected HEK293 cells [5]: no effect | ΔF median of boutons after application ([6]; before application 73): 75 arbitrary units (a.u) | Number of FM detectable boutons after application ([6]; before application 578): 318 | Effect on TRPL-mediated current (Drosophila TRPL channel [1]; 500μM): Large suppression of the current | TRPL Activation/Inhibition (Drosophila TRPL channel [1]): Inhibition | Reversibility of effect on TRPL channel (Drosophila TRPL channel [1]): reversibly blocked | Effect on amplitude of the LIC (native TRPL) (native TRPL channel; 500μM, trp^P343 mutant photoreceptor): dramatic reduction | Requirement of light stimulation for inhibition of native TRPL (native TRPL channel; carvacrol applied in the dark, trp^P343): does not require light stimulation | Effect on TRPM7 mediated current (mammalian TRPM7; 500μM): dramatic decrease | Reversibility of block of TRPM7 (mammalian TRPM7; HEK293 cells): reversibly blocked | Effect on current when TRPL was not expressed [3]: no effect | Effect on LIC of WT flies (TRP channel) (native TRP channel): inhibits

O=C/C=C/c1ccccc1 [Cinnamaldehyde]
Effect on TRPL-mediated current (Drosophila TRPL channel [1]; 2mM): decrease in the TRPL mediated current | TRPL Activation/Inhibition (Drosophila TRPL channel [1]): Inhibition | Reversibility of effect on TRPL channel (Drosophila TRPL channel [1]): reversible

C=CCc1ccc(O)c(OC)c1 [Eugenol]
Effect on TRPL-mediated current (Drosophila TRPL channel [1]; 3mM): large decrease in the TRPL-dependent current | TRPL Activation/Inhibition (Drosophila TRPL channel [1]): Inhibition

CC1CCC(C(C)C)C(O)C1 (centres unmarked) [Menthol]
IC50 (Drosophila TRPL channel [1]): 1.81 ± 0.13 mM | Effect on TRPL-mediated current (Drosophila TRPL channel [1]; 5mM (caffeic acid: up to 5mM)): large decrease in the TRPL-dependent current | TRPL Activation/Inhibition (Drosophila TRPL channel [1]): Inhibition

Cc1ccc(C(C)C)c(O)c1 [Thymol]
Effect on TRPL-mediated current (Drosophila TRPL channel [1]; 1mM): large decrease in the TRPL-dependent current | TRPL Activation/Inhibition (Drosophila TRPL channel [1]): Inhibition

Reference: article PMC2680423 (Cell calcium, 2009)
